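Step 1: Grow cells in 96-well plates. Step 2: Expose to compound for 48 hours at 5 concentrations. Step 3: Interpolate endpoints linearly; if unreached, use highest concentration. The concentration for 50% growth inhibition is given as GI50.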 Calls of active or inactive are those of the source. No stated cut-off is given here; in the data, active = GI50 up to about 1.1 µM and inactive = higher.
Legend:
Assay in all cases: growth of human tumour cells (NCI), 48 h
EKVX = tested on: EKVX
NCI-H226 = tested on: NCI-H226
MOLT-4 = tested on: MOLT-4
SN12C = tested on: SN12C
SK-MEL-5 = tested on: SK-MEL-5
SK-MEL-2 = tested on: SK-MEL-2
SK-OV-3 = tested on: SK-OV-3
COLO 205 = tested on: COLO 205
786-0 = tested on: 786-0
HCT-116 = tested on: HCT-116
A549 = tested on: A549
UACC-62 = tested on: UACC-62
SNB-19 = tested on: SNB-19
M14 = tested on: M14
BT-549 = tested on: BT-549
SW-620 = tested on: SW-620
OVCAR-4 = tested on: OVCAR-4
HOP-62 = tested on: HOP-62
TK-10 = tested on: TK-10
SR = tested on: SR
NCI/ADR-RES = tested on: NCI/ADR-RES
U-251 = tested on: U-251
UO-31 = tested on: UO-31
NCI-H23 = tested on: NCI-H23
HT-29 = tested on: HT-29
HCT-15 = tested on: HCT-15
Hs-578T = tested on: Hs-578T
K562 = tested on: K562
A498 = tested on: A498
UACC-257 = tested on: UACC-257
NCI-H460 = tested on: NCI-H460
SNB-75 = tested on: SNB-75
HOP-92 = tested on: HOP-92
MDA-MB-435 = tested on: MDA-MB-435
CAKI-1 = tested on: CAKI-1
SF-295 = tested on: SF-295
MDA-MB-231 = tested on: MDA-MB-231
T47D = tested on: T47D
ACHN = tested on: ACHN
KM12 = tested on: KM12
RPMI-8226 = tested on: RPMI-8226
OVCAR-5 = tested on: OVCAR-5
OVCAR-3 = tested on: OVCAR-3
SF-268 = tested on: SF-268
IGROV-1 = tested on: IGROV-1
SK-MEL-28 = tested on: SK-MEL-28
PC-3 = tested on: PC-3
LOX IMVI = tested on: LOX IMVI
NCI-H522 = tested on: NCI-H522
MDA-N = tested on: MDA-N
OVCAR-8 = tested on: OVCAR-8
CCRF-CEM = tested on: CCRF-CEM
HCC 2998 = tested on: HCC 2998
MCF7 = tested on: MCF7
Malme-3M = tested on: Malme-3M
DU-145 = tested on: DU-145
SF-539 = tested on: SF-539
RXF 393 = tested on: RXF 393
HL-60 = tested on: HL-60

Which results are given for `COc1ccc(N2C(=O)C3c4[nH]c5ccc(F)cc5c4C4CCC(c5ccccc5)CC4C3C2=O)cc1` (configuration not stated)?
GI50 (EKVX): 24.3 µM (inactive); GI50 (NCI-H226): 54.8 µM (inactive); GI50 (MOLT-4): 8.18 µM (inactive); GI50 (SN12C): 26.2 µM (inactive); GI50 (SK-MEL-5): 21.6 µM (inactive); GI50 (SK-MEL-2): 21.8 µM (inactive); GI50 (SK-OV-3): 22.5 µM (inactive); GI50 (COLO 205): 31.1 µM (inactive); GI50 (786-0): 3.56 µM (inactive); GI50 (HCT-116): 20.7 µM (inactive); GI50 (A549): 11.6 µM (inactive); GI50 (UACC-62): 11.9 µM (inactive); GI50 (SNB-19): 11.1 µM (inactive); GI50 (M14): 12.9 µM (inactive); GI50 (BT-549): 17.3 µM (inactive); GI50 (SW-620): 8.38 µM (inactive); GI50 (OVCAR-4): 12.7 µM (inactive); GI50 (HOP-62): 14.3 µM (inactive); GI50 (TK-10): 21.9 µM (inactive); GI50 (SR): 6.93 µM (inactive); GI50 (NCI/ADR-RES): 45.9 µM (inactive); GI50 (U-251): 9.98 µM (inactive); GI50 (UO-31): 21.4 µM (inactive); GI50 (NCI-H23): 18.8 µM (inactive); GI50 (HT-29): 16 µM (inactive); GI50 (HCT-15): 19.7 µM; GI50 (Hs-578T): 10.8 µM (inactive); GI50 (K562): 3.44 µM (inactive); GI50 (A498): 15.7 µM (inactive); GI50 (UACC-257): 26.7 µM (inactive); GI50 (NCI-H460): 10 µM (inactive); GI50 (SNB-75): 12.5 µM (inactive); GI50 (HOP-92): 14.5 µM (inactive); GI50 (MDA-MB-435): 16.6 µM (inactive); GI50 (CAKI-1): 19.8 µM (inactive); GI50 (SF-295): 31 µM (inactive); GI50 (MDA-MB-231): 15.3 µM (inactive); GI50 (T47D): 39.3 µM (inactive); GI50 (ACHN): 20.3 µM (inactive); GI50 (KM12): 20.7 µM (inactive); GI50 (RPMI-8226): 32.8 µM (inactive); GI50 (OVCAR-5): 18.3 µM (inactive); GI50 (OVCAR-3): 38.3 µM (inactive); GI50 (SF-268): 5.81 µM (inactive); GI50 (IGROV-1): 20.1 µM (inactive); GI50 (SK-MEL-28): 13.5 µM (inactive); GI50 (PC-3): 14.2 µM (inactive); GI50 (LOX IMVI): 36.8 µM (inactive); GI50 (NCI-H522): 13 µM (inactive); GI50 (MDA-N): 27.4 µM (inactive); GI50 (OVCAR-8): 17.8 µM (inactive); GI50 (CCRF-CEM): 2.26 µM (inactive); GI50 (HCC 2998): 39.9 µM (inactive); GI50 (MCF7): 18.7 µM (inactive); GI50 (Malme-3M): 16.1 µM (inactive); GI50 (DU-145): 66.2 µM (inactive)

With `CCOC(=O)C(C)c1nc2ccc(C(F)(F)F)cc2[nH]c1=O` (configuration not stated) as the compound, how does the GI50 (EKVX) read?
Its GI50 is 43.1 µM (inactive).

What about the GI50 (NCI-H226) of the same compound?
Its GI50 is 73.6 µM (inactive).

And the GI50 (MOLT-4)?
The GI50 was 50.2 µM (inactive).

And the GI50 (SN12C)?
Its GI50 is > 100 µM (inactive).

What about the GI50 (SK-MEL-5) of the same compound?
The GI50 was 52.7 µM (inactive).

And the GI50 (SK-MEL-2)?
The GI50 was > 100 µM (inactive).

And the GI50 (SK-OV-3)?
The GI50 was > 100 µM (inactive).

And the GI50 (COLO 205)?
The GI50 was > 100 µM (inactive).

And the GI50 (786-0)?
The GI50 was > 100 µM (inactive).

What about the GI50 (HCT-116) of the same compound?
Its GI50 is 72.8 µM (inactive).

What about the GI50 (A549) of the same compound?
The GI50 was 73.5 µM (inactive).

And the GI50 (UACC-62)?
The GI50 was 39.8 µM (inactive).

What about the GI50 (SNB-19) of the same compound?
The GI50 was > 100 µM (inactive).

And the GI50 (M14)?
Its GI50 is 80 µM (inactive).

And the GI50 (BT-549)?
The GI50 was 42 µM (inactive).

What about the GI50 (SW-620) of the same compound?
Its GI50 is > 100 µM (inactive).

And the GI50 (OVCAR-4)?
Its GI50 is 42.5 µM (inactive).

What about the GI50 (SF-539) of the same compound?
The GI50 was > 100 µM (inactive).

And the GI50 (HOP-62)?
The GI50 was > 100 µM (inactive).

And the GI50 (TK-10)?
Its GI50 is 60.7 µM (inactive).

And the GI50 (NCI/ADR-RES)?
Its GI50 is 37.4 µM (inactive).

What about the GI50 (U-251) of the same compound?
Its GI50 is > 100 µM (inactive).

And the GI50 (UO-31)?
The GI50 was 36.2 µM (inactive).

What about the GI50 (NCI-H23) of the same compound?
Its GI50 is 49.9 µM (inactive).

What about the GI50 (HT-29) of the same compound?
Its GI50 is 51.6 µM (inactive).

And the GI50 (HCT-15)?
Its GI50 is 95.3 µM.

And the GI50 (Hs-578T)?
The GI50 was 68.4 µM (inactive).

What about the GI50 (K562) of the same compound?
The GI50 was 48.5 µM (inactive).

And the GI50 (A498)?
Its GI50 is 34 µM (inactive).

And the GI50 (UACC-257)?
Its GI50 is 58.7 µM (inactive).

What about the GI50 (NCI-H460) of the same compound?
Its GI50 is 84.9 µM (inactive).

What about the GI50 (SNB-75) of the same compound?
The GI50 was 46.6 µM (inactive).

What about the GI50 (HOP-92) of the same compound?
The GI50 was 43.9 µM (inactive).

And the GI50 (MDA-MB-435)?
The GI50 was > 100 µM (inactive).

And the GI50 (CAKI-1)?
Its GI50 is > 10 µM (inactive).

What about the GI50 (SF-295) of the same compound?
Its GI50 is 45.5 µM (inactive).

And the GI50 (MDA-MB-231)?
The GI50 was 77.1 µM (inactive).

And the GI50 (T47D)?
The GI50 was 23.8 µM (inactive).

And the GI50 (ACHN)?
The GI50 was > 100 µM (inactive).

And the GI50 (KM12)?
Its GI50 is 71.9 µM (inactive).

What about the GI50 (RPMI-8226) of the same compound?
Its GI50 is 28.9 µM (inactive).

What about the GI50 (OVCAR-5) of the same compound?
The GI50 was > 100 µM (inactive).

And the GI50 (OVCAR-3)?
The GI50 was 28 µM (inactive).

And the GI50 (SF-268)?
The GI50 was 87.1 µM (inactive).

And the GI50 (SK-MEL-28)?
The GI50 was > 100 µM (inactive).

And the GI50 (PC-3)?
Its GI50 is 36.9 µM (inactive).

And the GI50 (RXF 393)?
The GI50 was 64.3 µM (inactive).

What about the GI50 (LOX IMVI) of the same compound?
The GI50 was 66.2 µM (inactive).

What about the GI50 (MDA-N) of the same compound?
The GI50 was 64.1 µM (inactive).

And the GI50 (HL-60)?
Its GI50 is 44.8 µM (inactive).

And the GI50 (OVCAR-8)?
Its GI50 is 94.6 µM (inactive).

And the GI50 (CCRF-CEM)?
Its GI50 is 77.8 µM (inactive).

What about the GI50 (HCC 2998) of the same compound?
Its GI50 is 65.2 µM (inactive).

And the GI50 (MCF7)?
The GI50 was 60.8 µM (inactive).

And the GI50 (Malme-3M)?
The GI50 was 97.7 µM (inactive).

What about the GI50 (DU-145) of the same compound?
The GI50 was 69.2 µM (inactive).

— ChEMBL document CHEMBL1201862, “PubChem BioAssay data set” (2004)
